Source: US20240287093A1, “HIGH ACTIVITY STING PROTEIN AGONIST” (ADLAI NORTYE BIOPHARMA CO., LTD., priority 2018, published 2024)

Key:
Assay type in all cases: cell-based
STING variants (WT) = molecular target: T1, STING variants (WT) (Homo sapiens, UniProt Q86WV6); test: SEAP reporter assay in HEK-Blue ISG KO-STING cells transfected with STING WT variant (Method 2, 1 ng vector); conditions: compound concentration 2.5 (mM as printed); 24 h; SEAP signal ratio to 0.5% DMSO
T1 construct: host or cells: HEK-Blue ISG KO-STING cells (Invivogen, hkb-kostg)
Source text: (§1) Example II: STING Variants (WT & HAQ) Activation by Compounds in HEK-Blue™ ISG KO-STING Cells (Method 2)
(§2) Activation of STING can be determined using a SEAP reporter assay in HEK-Blue™ ISG KO-STING cells (Invivogen, cat #hkb-kostg) transfected with plasmids expressing STING variants (WT & HAQ) (referred to WO2017/175147A1). STING variants (WT & HAQ) vector were constructed based on STING-232H vector (Origene, RC208418). GFP vector (VT2069) was bought from Youbio. The detailed protocol as follows: HEK-Blue™ ISG KO-STING cells were harvest and seeding into 96 well plate and the final cell number was 0.8×10^5 cells/well. Transfections were prepared using Lipofectamine 2000 (Invitrogen, Cat #11668-027) following the manufacturer's instructions (Lipo2000:DNA=1:10), 20 ul of transfection suspension containing 1 ng (WT variant) or 0.0625 ng (HAQ variant) STING vector was added to cell culture plate and incubated at 37° C., 5% CO2 for 24 h. After 24 hours incubation, compounds were added at proper concentration, the final DMSO concentration was 0.5%. After 24h incubation, the supernatant was collected to detect SEAP signal using Great EscAPe SEAP chemiluminescence KIT (Clontech, cat #631738) and cells were collected to detect cell viability using CellTiter-Glo Luminescent Cell Viability Assay(Promega, cat #G7573) following the manufacturer's instructions. The data were described by the ratio of the stimulating signal of compounds to 0.5% DMSO.

STING variants (HAQ) = molecular target: T2, STING variants (HAQ) (Homo sapiens, UniProt Q86WV6, G230A/R293Q/R71H); test: SEAP reporter assay in HEK-Blue ISG KO-STING cells transfected with STING HAQ variant (Method 2, 0.0625 ng vector); conditions: compound concentration 5 (mM as printed); 24 h; SEAP signal ratio to 0.5% DMSO
T2 construct: host or cells: HEK-Blue ISG KO-STING cells (Invivogen, hkb-kostg)
T2 sequence (Q86WV6 whole entry R71H/G230A/R293Q): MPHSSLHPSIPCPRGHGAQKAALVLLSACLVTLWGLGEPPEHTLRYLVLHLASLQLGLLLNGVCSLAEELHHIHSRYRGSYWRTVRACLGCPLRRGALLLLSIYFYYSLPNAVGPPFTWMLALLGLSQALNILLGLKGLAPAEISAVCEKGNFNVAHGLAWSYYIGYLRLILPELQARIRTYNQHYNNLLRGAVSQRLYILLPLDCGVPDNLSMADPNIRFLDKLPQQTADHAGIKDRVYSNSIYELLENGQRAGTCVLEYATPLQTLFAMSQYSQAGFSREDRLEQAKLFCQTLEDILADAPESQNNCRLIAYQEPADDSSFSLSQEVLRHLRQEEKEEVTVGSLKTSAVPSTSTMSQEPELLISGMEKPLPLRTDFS
Source text: as §1, §2

STING = molecular target: T3, STING (Homo sapiens, UniProt Q86WV6, G230A/H232R/R293Q/R71H); test: IFNβ release from THP1 by STING activation (hIFNβ ELISA); conditions: THP1 cells, 24 h, IFN-β in supernatant; inactive = IFNβ not detected at the maximum concentration of compounds
T3 construct: THP1 was purchased from National Collection of Authenticated Cell Cultures (Cat #TCHu 57); host or cells: THP1
T3 sequence (Q86WV6 whole entry R71H/G230A/H232R/R293Q): as the sequence (Q86WV6 whole entry R71H/G230A/R293Q) above, with H232R counted along it
In short: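 THP1 cells from log-phase culture, suspended at 2×10^6 cells/ml, were treated with an 8-point, 3-fold compound series (0.2% DMSO final) for 24 h at 37°C, 5% CO2. Secreted IFN-β in supernatant was quantified by human IFNβ ELISA, and EC50 was obtained by curve fitting.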

Fold change related to DMSO control, WT (STING variants (WT)) [fold]	Fold change related to DMSO control, HAQ (STING variants (HAQ)) [fold]	EC50 (STING) [µM]	Compound
7.69	74.83	7.6	CCN1CC(C)(C)Cn2c(NC(=O)c3cc(C)nn3CC)nc3cc(C(N)=O)cc1c32 [Example 69, 6-Ethyl-1-(1-ethyl-3-methyl-1H-pyrazole-5-carboxamido)-8,8-dimethyl-6,7,8,9-tetrahydro-2,6,9a-triazabenzo[cd]azulene-4-carboxamide]
2.37	10.57	> 50	CCn1nc(C)cc1C(=O)Nc1nc2cc(C(N)=O)cc3c2n1C[C@@H](C)CO3 [Example 70, (R)-1-(1-Ethyl-3-methyl-1H-pyrazole-5-carboxamido)-8-methyl-8,9-dihydro-7H-6-oxa-2,9a-diazabenzo[cd]azulene-4-carboxamide]
2.97	18.10	> 17.6	CCn1nc(C)cc1C(=O)Nc1nc2cc(C(N)=O)cc3c2n1C[C@H](C)CO3 [Example 71, (S)-1-(1-Ethyl-3-methyl-1H-pyrazole-5-carboxamido)-8-methyl-8,9-dihydro-7H-6-oxa-2,9a-diazabenzo[cd]azulene-4-carboxamide]
1.24	3.27	> 38.5	CCn1nc(C)c(F)c1C(=O)Nc1nc2cc(C(N)=O)cc3c2n1CC1(COC1)CO3 [Example 72, 1-(1-Ethyl-4-fluoro-3-methyl-1H-pyrazole-5-carboxamido)-7H,9H-6-oxa-2,9a-diazaspiro[benzo[cd]azulene-8,3′-oxetan]-1,2a,2a^1(5a),4-tetraene-4-carboxamide]
